Measurements published in patent US8362066B2, “Compounds and methods for treating protein folding disorders” (Treventis Corporation, priority 2006, dated 2013).

Key:
Aβ1-40 [1] = target: T1, Aβ1-40 (Homo sapiens, UniProt P05067); assay: ThT fluorescence assay, inhibition of Aβ1-40 aggregation; type: biochemical
T1 construct: Both Aβ1-40 and Aβ1-42 were purchased from Anaspec; purchased Anaspec
Procedure: The compounds of the invention were evaluated for activity against Aβ aggregation in a kinetic thioflavin T (ThT) fluorescence assay similar to that of Chalifour, R. J., et al., J. Biol. Chem. (2003) 278: 34874-81. IC50 values for inhibition of Aβ1-40 aggregation in the ThT fluorescence assay for a number compounds of the present invention were determined. Values were calculated by solving the equation y=(m2)/(1+(x/m3)^m4) where y is percent aggregation, x is compound concentration, and m3 is the concentration giving 50% aggregation (i.e. IC50), using KaleidaGraph 4.0 (Synergy Software). Dye-binding ThT/ThS protein aggregation assays for Aβ, tau and α-synuclein were performed as described in Example 8 of US2007/0015813.

Tau 441 [2] = target: T2, Tau 441 (Homo sapiens, UniProt P10636); assay: Tris-tricine SDS-PAGE, Tau 441 self-assembly following ThS aggregation assay; type: biochemical; settings: FIG. 10; for effect on Tau 441 self-assembly, monomer fragmentation (SDS-PAGE): relative to control
Procedure: (§1) Pre-cast polyacrylamide gels were purchased from NuSep (10-20% Tris-tricine-SDS). These were chosen for their large separation range of 2.5 to 205 kDa. Molecular weight markers were purchased from Sigma Aldrich and diluted twenty fold for individual use. Three buffers were used for this technique: 1) Sample buffer (1.25 mL 0.5 M Tris-HCl (pH 6.8), 2.5 mL glycerol, 2.0 mL 10% SDS, 0.2 mL 0.5% bromophenol blue, 3.55 mL distilled water) which was used as the leading band in the gel. 2) Cathode Buffer (12.11 g tris base, 17.92 g tricine, 1 g SDS, diluted to 1 L with distilled water) which was the inner buffer in the tank assembly. 3) Anode Buffer (5× concentrated: 121.1 g tris base in 1 L of distilled water, pH 8.9 adjusted with concentrated HCl) which was the outer buffer and loaded at 1× concentration. Both Aβ1-40 and Aβ1-42 were purchased from Anaspec.
(§2) Five solutions were required to stain the gels using the silver stain protocol: 1) Fixer 1 (40% methanol, 10% acetic acid, diluted to 1 L with Millie-Q water) 2) Fixer 2 (45 g anhydrous sodium acetate, 300 mL methanol, 5 mL 25% glutaraldehyde, diluted to 1 L with Millie-Q water), 3) a) Silver stain A (15 mL of 25% ammonia solution, 0.8 g sodium hydroxide, diluted to 950 mL with Millie Q water). b) Silver stain B (6 g of silver nitrate in 50 mL Millie Q water). Solution B was then slowly added to solution A. 4) Developer (0.1 g citric acid, 1 mL formaldehyde, diluted to 1 L with Millie-Q water), 5) Stop solution (50 mL acetic acid, diluted to 1 L with Millie-Q water).
(§3) Following a ThT (Aβ1-40) or ThS (Tau 441) aggregation assay, described in Example 8 of US2007/0015813, samples were immediately aspirated and stored in centrifuge tubes. 10 μL of each sample was transferred to a microfuge tube and diluted 1:1 with sample buffer before being incubated (37° C.) for 30 minutes and loaded in the precast gels (15 μL in each well). The gel was then run at 100 V for approximately one hour or until the leading band reached the bottom of the gel.
(§4) Once the gel had finished running, it was removed from its plastic case and placed in a tray for staining. Approximately 200-250 mL volume was used for all the solutions. The gel was first washed with distilled water briefly to rinse off the excess buffer from the tank. It was then immersed in Fixer 1 for 30 minutes. followed by Fixer 2 for 30 minutes. Once the gel was fixed it then underwent three water washes at 10 minutes per wash. After the water washes, the gel was stained for 30 minutes using the silver stain solution. Excess stain was removed using three four-minute water washes. The gel was then immersed in the developer solution to visualize the stain. This took place for approximately 5 minutes or until the desired intensity was reached. To immediately stop the developing process the gel was placed in the stop solution for 10 minutes.

Tau 441 [3] = target: T2, Tau 441; assay: TEM of Tau 441 fibrils following ThS aggregation assay; type: biochemical; settings: Tau 441 6 μM, compound 20 μM, FIG. 14
Procedure: (§5) A modified version of the procedure of Cohen et al. (Biochemistry 2006, 45: 4727-35) was followed for TEM analysis. Uranylacetate was used as negative stain (Electron Microscopy Sciences) and was made as a 3% solution and stored at 5° C. in the dark to reduce photodecay. Aspirated samples from ThT (Aβ1-40) and ThS (Tau 441) aggregation assays, or Aβ1-42 incubated (37° C.) for 30 min. in the presence and absence of compounds were used in the TEM analyses. Samples were carefully loaded on Formvar-coated 400 mesh copper grids (Electron Microscopy Sciences) as a 10 μL drop. After sitting for 60 seconds, excess fluid was gently dabbed off with filter paper. Next, the 3% uranylacetate was added as a drop onto the grid and left to stand for another 60 seconds. The excess fluid was again dabbed off by filter paper. Samples were left to dry for at least 30 minutes prior to being viewed on an electron microscope operating at 80 kV.

Tau 441 [4] = target: T2, Tau 441; assay: ThS fluorescence assay, Tau 441 aggregation; type: biochemical; settings: Tau 441 6 μM; compound 50 μM and 10 μM; 24 hours, 37° C., FIG. 15
Procedure: (§6) The following procedures were used. The compounds were examined by circular dichroism (CD) to confirm their anti-amyloidogenic activity and were further evaluated for inhibition of both tau and α-synuclein aggregation in Thioflavin S (ThS) and ThT dye-binding fluorescence assays, respectively. The compounds were also evaluated in a MTT [3-(4,5-dimethylthiazol-2-yl)-2,5-diphenyltetrazolium bromide] cell viability assay (Kaneko, I., et al., J. Neurochem. (1995) 65: 2585-93). Pharmacokinetic (PK) testing was also performed. Compounds administered to mice (IP or PO dosing) had no toxicity at doses up to 300 mg/kg and were present in brain more than four hours after administration.
(§7) Dye-binding ThT/ThS protein aggregation assays for Aβ, tau and α-synuclein were performed as described in Example 8 of US2007/0015813.

Aβ1-42 [5] = target: T3, Aβ1-42 (Homo sapiens, UniProt P05067); assay: Tris-tricine SDS-PAGE, Aβ1-42 self-assembly; type: biochemical; settings: versus control, FIG. 8
T3 construct: Both Aβ1-40 and Aβ1-42 were purchased from Anaspec; purchased Anaspec
Procedure: as §1
Five solutions were required to stain the gels using the silver stain protocol: 1) Fixer 1 (40% methanol, 10% acetic acid, diluted to 1 L with Millie-Q water) 2) Fixer 2 (45 g anhydrous sodium acetate, 300 mL methanol, 5 mL 25% glutaraldehyde, diluted to 1 L with Millie-Q water), 3) a) Silver stain A (15 mL of 25% ammonia solution, 0.8 g sodium hydroxide, diluted to 950 mL with Millie Q water). b) Silver stain B (6 g of silver nitrate in 50 mL Millie Q water). […]

Aβ1-40 [6] = target: T1, Aβ1-40; assay: TEM of Aβ1-40 fibrils; type: biochemical; settings: Aβ1-40 20 μM; for Aβ1-40 fibrils (TEM): absence of ThT; for Aβ1-40 fibril formation (TEM): compound 20 μM, following ThT aggregation assay, FIG. 11
Procedure: as §5

Aβ1-42 [7] = target: T3, Aβ1-42; assay: TEM of Aβ1-42 fibrils; type: biochemical; settings: Aβ1-42 20 μM, absence of ThT, FIG. 13
Procedure: as §5

α-synuclein = α-synuclein (Homo sapiens, UniProt P37840); assay: ThT fluorescence assay, α-synuclein aggregation; type: biochemical; settings: α-synuclein 4 μM; compound 100 μM and 20 μM; 96 hours, 37° C., FIG. 16
Procedure: as §6, §7

[8] = tested on: SH-SY5Y neuroblastoma cells; assay: MTT cell viability assay, protection from Aβ40; type: cell-based; settings: Aβ40 20 μM
Procedure: The assay was based on that reported by Conte and co-workers (Conte, A., Pellegrini, s. & Tagliazucchi, D. 2Q03. Brain Res. Bull. 62, 29-38). Briefly, Aβ1-40 (1.0 mg) was dissolved directly in Tris base ([…], […], pH approximately 10). The pH was dropped to 7.4 using concentrated HCl and the solution diluted ten-fold with growth medium consisting of Dulbecco's Modified Eagle Medium (high glucose) containing 10% fetal bovine serum. penicillin-G (10,000 units/mL) and streptomycin (10 mg/mL); giving 20 μM Aβ40. For non-Aβ-containing controls. growth medium was diluted 10% with Tris buffer (20 mM, pH 7.4). SH-SY5Y neuroblastoma cells were seeded at approximately 20,000 cells per well in a covered 96-well clear polystyrene plate and incubated at 37° C., 5% CO2 for 24 h. After discarding supernatant, growth medium (200 μL), containing either Aβ3-40 or vehicle (controls), was added to the wells, followed by test compound in DMSO (0.5 μL) or DMSO alone (controls). Incubations all had 5 or more replicates. After incubating for 6-10 h (37° C., 5% C02), the dye 3-(4,5-dimethylthiazol-2-yl)-2,5-diphenyltetrazolium bromide (MTT, 20 microL. 5 mg/mL in PBS) was added to each well and the plate incubated for another 2 h. Medium was discarded and the formazan product dissolved by adding DMSO (100 μL) and shaking. Absorbance was measured at 540 nm in a Tecan Genios microplate reader.

Aβ1-40 [9] = target: T1, Aβ1-40; assay: Tris-tricine SDS-PAGE, Aβ1-40 self-assembly following ThT aggregation assay; type: biochemical; settings: FIG. 9
Procedure: as §1, §2, §3, §4

T1 sequence (P05067 672-711 limits assumed): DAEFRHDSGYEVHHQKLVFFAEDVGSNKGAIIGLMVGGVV
T2 sequence (P10636 1-441 isoform P10636-8): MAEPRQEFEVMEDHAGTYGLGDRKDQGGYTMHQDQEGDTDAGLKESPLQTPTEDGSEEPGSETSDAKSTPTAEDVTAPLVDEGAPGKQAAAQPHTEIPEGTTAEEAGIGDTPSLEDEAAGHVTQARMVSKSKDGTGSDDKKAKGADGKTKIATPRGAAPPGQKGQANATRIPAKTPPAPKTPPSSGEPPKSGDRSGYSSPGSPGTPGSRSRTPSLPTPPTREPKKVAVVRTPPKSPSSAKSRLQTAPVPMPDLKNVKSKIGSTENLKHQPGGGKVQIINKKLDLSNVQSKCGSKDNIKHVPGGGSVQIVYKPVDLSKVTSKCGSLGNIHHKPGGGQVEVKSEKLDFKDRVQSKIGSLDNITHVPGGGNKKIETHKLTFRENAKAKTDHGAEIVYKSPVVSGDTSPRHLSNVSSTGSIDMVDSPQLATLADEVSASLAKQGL
T3 sequence (P05067 672-713 limits assumed): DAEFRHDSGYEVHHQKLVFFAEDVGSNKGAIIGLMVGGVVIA

COc1ccc2cc(-c3c[nH]c4c(C(=O)O)cccc34)ccc2c1 [QR-0262, 3-(2-Methoxynaphthalen-6-yl)-1H-indole-7-carboxylic acid] was tested, and the IC50 (Aβ1-40 [1]) was 4.4 µM, the “effect on Tau 441 self-assembly, monomer fragmentation (SDS-PAGE)” value (from here on “effect on Tau 441 self-assembly”) (Tau 441 [2]) was “no clear effect” and the “Tau 441 assemblies seen (TEM)” value (Tau 441 [3]) was “spherical assemblies that were not present in the control”. For the same compound, the “Tau 441 fibril formation (TEM)” value (Tau 441 [3]) was “increase in fibril formation” and the “inhibition of Tau 441 aggregation (ThS fluorescence)” value (“inhibition of Tau 441 aggregation” below) (Tau 441 [4]) was “only moderately inhibited”.
O=C(O)c1cccc2c(-c3c(O)c(O)cc4ccccc34)c[nH]c12 [QR-0273] was tested, and the IC50 (Aβ1-40 [1]) was 10.3 µM, the “effect on Aβ1-42 self-assembly (SDS-PAGE)” value (Aβ1-42 [5]) was “increase in the presence of monomer and pentamer as well as the appearance of a dimer” and the “Aβ1-40 fibrils (TEM)” value (Aβ1-40 [6]; compound 100 μM, FIG. 12) was “increase in the number of fibrils”.
In the case of COc1ccc2[nH]cc(-c3c[nH]c4ccc(N)cc34)c2c1 [QR-0185], the IC50 (Aβ1-40 [1]) is reported as 12.5 µM and the “Aβ1-42 fibrils (TEM)” value (Aβ1-42 [7]; compound 100 μM) is reported as “decrease in fibrils”.
For O=C(O)c1ccc2[nH]cc(-c3c(O)c(O)cc4ccccc34)c2c1 [QR-0194], the IC50 (Aβ1-40 [1]) was 17.7 µM, the “Aβ1-40 fibril formation (TEM)” value (Aβ1-40 [6]) was “increase in fibril formation but of a different morphology” and the “Aβ1-42 fibrils (TEM)” value (Aβ1-42 [7]; compound 20 μM) was “apparent increase in the number of fibrils”. For the same compound, the “inhibition of α-synuclein aggregation (ThT fluorescence)” value (α-synuclein) was “showed inhibition”.
In the case of O=C(O)c1cccc2c(-c3c[nH]c4ccccc34)c[nH]c12 [QR-0112], the IC50 (Aβ1-40 [1]) is reported as 34.4 µM, the “% cell viability, protection from Aβ40” value ([8]; 50 μM compound) is reported as “significantly protective” and the “% cell viability, protection from Aβ40” value ([8]; 2 and 10 μM compound) is reported as “trends towards protection”. For the same compound, the “effect on distribution of Aβ1-40 among states of assembly / monomer (SDS-PAGE)” value (Aβ1-40 [9]) was “increase in the concentration of Aβ1-40 monomer” and the “Aβ1-40 fibril formation (TEM)” value (Aβ1-40 [6]) was “increase in fibril formation but of a different morphology”.
For O=C(O)c1cc2cc(-c3ccc4c(c3)OCCO4)ccc2c(Br)c1O [QR-0281, 4-Bromo-7-(2,3-dihydrobenzo[b][1,4]dioxin-7-yl)-3-hydroxyynaphthalene-2-carboxylic acid], the IC50 (Aβ1-40 [1]) was 4.6 µM, the “Tau 441 dimer and trimer bands (SDS-PAGE)” value (Tau 441 [2]) was “appearance of dimer and trimer bands” and the “effect on Tau 441 self-assembly” value (Tau 441 [2]) was “decreased fragmentation of tau 441 monomer”. The “Tau 441 assemblies seen (TEM)” value (Tau 441 [3]) was “spherical assemblies that were not present in the control”, the “Tau 441 fibril formation (TEM)” value (Tau 441 [3]) was “increase in fibril formation” and the “inhibition of Tau 441 aggregation” value (Tau 441 [4]) was “greatly inhibited”.
In the case of Oc1ccc2[nH]cc(-c3c[nH]c4ncccc34)c2c1 [QR-0161], the “% cell viability, protection from Aβ40” value ([8]; 20 and 50 μM compound) is reported as “significantly active”.
In the case of O=C(O)c1cc2cc(-c3ccc4cc(O)ccc4c3)ccc2c(Br)c1O [QR-0263, 4-bromo-3-hydroxy-7-(2-hydroxynaphthalen-6-yl)naphthalene-2-carboxylic acid], the IC50 (Aβ1-40 [1]) is reported as 1.93 µM, the “Tau 441 dimer and trimer bands (SDS-PAGE)” value (Tau 441 [2]) is reported as “appearance of dimer and trimer bands” and the “effect on Tau 441 self-assembly” value (Tau 441 [2]) is reported as “decreased fragmentation of tau 441 monomer”. The “Aβ1-40 fibrils (TEM)” value (Aβ1-40 [6]; compound at 20, FIG. 12) was “reduction in fibrils” and the “inhibition of Tau 441 aggregation” value (Tau 441 [4]) was “greatly inhibited”.
